# How the values were obtained:
# [1] = molecular target: T1, FmoB (Aspergillus nidulans, UniProt Q5B5S0); test: UV-visible absorbance spectrum of FAD saturated enzyme; type: binding; conditions: purified recombinant FmoB
# T1 construct: gene ANIA_04110; complete fmoB gene from cDNA, expressed in E. coli, HIS-Select and size exclusion purified, ~60 kDa on SDS-PAGE, FAD saturated
# T1 sequence (Q5B5S0 1-492): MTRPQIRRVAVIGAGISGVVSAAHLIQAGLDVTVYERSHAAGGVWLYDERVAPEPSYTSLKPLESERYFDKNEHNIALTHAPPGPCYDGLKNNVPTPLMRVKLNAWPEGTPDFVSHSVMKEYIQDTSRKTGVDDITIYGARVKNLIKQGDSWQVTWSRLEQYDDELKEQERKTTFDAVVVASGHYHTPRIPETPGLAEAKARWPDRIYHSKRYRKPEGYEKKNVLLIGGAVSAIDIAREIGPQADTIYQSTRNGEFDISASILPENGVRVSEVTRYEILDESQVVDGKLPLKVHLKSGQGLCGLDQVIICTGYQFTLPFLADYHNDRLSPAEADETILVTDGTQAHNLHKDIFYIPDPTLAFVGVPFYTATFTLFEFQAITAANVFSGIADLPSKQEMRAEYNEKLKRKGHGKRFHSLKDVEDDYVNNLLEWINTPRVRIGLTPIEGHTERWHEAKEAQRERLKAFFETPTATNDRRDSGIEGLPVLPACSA
# [2] = molecular target: T1, FmoB; test: HPLC of L-methionine sulfoxide formed; type: biochemical; conditions: NADPH-dependent; up to 5 mM methionine; low rate
# [3] = molecular target: T1, FmoB; test: NADPH consumption, absorbance at […] nm; type: biochemical; conditions: 2 uM FmoB, 200 uM NADPH, 2 mM substrate
smiles,measurement,setting,value
Cc1cc2nc3c(=O)[nH]c(=O)nc-3n(C[C@H](O)[C@H](O)[C@H](O)COP(=O)(O)OP(=O)(O)OC[C@H]3O[C@@H](n4cnc5c(N)ncnc54)[C@H](O)[C@@H]3O)c2cc1C [FAD],UV-visible absorbance spectrum of FAD saturated enzyme,[1],An UV-visible absorbance spectra of FAD saturated FmoB is shown as inset
CSCC[C@H](N)C(=O)O [L-methionine],HPLC of L-methionine sulfoxide formed,[2],it is able to convert free methionine to the sulfoxide form
N[C@@H](CS)C(=O)O [cysteine],"NADPH consumption, absorbance at 340 nm",[3],"free cysteine, dithiothreitol (DTT) or β-mercaptoethanol were favourable substrates for FmoB"

# — paper PMC4488483, “Reversible Oxidation of a Conserved Methionine in the Nuclear Export Sequence Determines Subcellular Distribution and Activity of the Fungal Nitrate Regulator NirA” (PLoS Genetics, 2015)
